The source of these data is paper PMC10285648, “iTAG an optimized IMiD-induced degron for targeted protein degradation in human and murine cells” (iScience, 2023).

SMILES strings stand for the structures.

The subject of one data set is cMYC-EGFP-DCD19. The data set is described as follows: Flow cytometry of EGFP signal, cMYC-EGFP-DCD19 in HMEC. It counts as cell-based, human. Particulars: 10uM, 4h. An excerpt:
(§1) To systematically delineate the optimal DCD/degrader combination for targeted protein degradation, we undertook a matrix approach evaluating all 23 DCD tags against 6 small molecule degraders. […] To control for any potential off-target effects of the IMiD/CeLMOD agents that could indirectly affect the target of interest, we designed controls in which the specific DCD and the EGFP sequences were interspaced by a P2A ribosomal “skipping” sequence,[32] leading to separate translation of the DCD and the target protein (Figure 1A). These constructs were then inserted into a doxycycline-inducible lentiviral vector system and stably expressed in hTERT immortalized human mammary epithelial cells (HMEC), a suitable model to assess the functional consequences of cMYC degradation. cMYC was tagged at the C-terminus end for the initial screening experiments.
(§2) Figure 1 Design and experimental evaluation of the DCD tags (A) Representation of the experimental pipeline used to evaluate the different DCD constructs. […] Median EGFP intensity was measured in each condition using flow cytometry (3 independent experiments, normalized to the control and represented as mean ± SD). […] The protein lysates were probed for cMYC levels using western blotting. […] Target loss was evaluated either by measuring EGFP median intensity using flow cytometry or western blotting for cMYC protein (3 independent experiments, normalized to the control and represented as mean ± SD). […] Target loss was evaluated as in (D) (3 independent experiments, normalized to the control and represented as mean ± SD). […] Protein lysates were collected and probed for cMYC and p21 using western blotting. […] Protein lysates were collected and probed for cMYC and p21 using western blotting. […] These were left out as controls with no test substance.
(§3) Following degrader treatment cells were collected and DAPI was added to the cell suspension at 1 μg/mL to allow the exclusion of dead cells. EGFP signal was measured using BD LSR II flow cytometer (BD Biosciences). FlowJo 10 Software (FlowJo) was used for data processing.
(In general: A flow cytometer gives signals particle by particle.)

Another data set deals with cMYC-EGFP-DCD2. Nature of the data set: Flow cytometry of EGFP signal, cMYC-EGFP-DCD2 in HMEC. It counts as cell-based, human. Particulars: 10uM, 4h. The source says:
To systematically delineate the optimal DCD/degrader combination for targeted protein degradation, we undertook a matrix approach evaluating all 23 DCD tags against 6 small molecule degraders. First, we fused the DCD tags with Enhanced Green Fluorescent Protein (EGFP) and a target protein of interest, focusing initially on the proto-oncogene cMYC (Figure 1A). cMYC function has been extensively studied and downstream perturbations of cMYC loss are well characterised,[29]^,[30]^,[31] providing a good reference to test the iTAG system. […]
Figure 1 Design and experimental evaluation of the DCD tags (A) Representation of the experimental pipeline used to evaluate the different DCD constructs. […] Median EGFP intensity was measured in each condition using flow cytometry (3 independent experiments, normalized to the control and represented as mean ± SD). […] Target loss was evaluated either by measuring EGFP median intensity using flow cytometry or western blotting for cMYC protein (3 independent experiments, normalized to the control and represented as mean ± SD). […] Target loss was evaluated as in (D) (3 independent experiments, normalized to the control and represented as mean ± SD). […]

The test system of data set [1] is HMEC, HEK293T, MDA-MB-231, Kelly cells. The data set is described as follows: Cell viability assay (CellTiter-Blue). It counts as cell-based, human. The following applies: 5 days treatment. The protocol:
By endpoint, CellTiter-Blue reagent (Promega) was added to each well, incubated for 3 h at 37°C and absorbance was measured with a plate reader at 570nm. Average background absorbance value was subtracted from all readings when plotting the viability curve.
For orientation: Resazurin is reduced to fluorescent resorufin, in cell work by metabolically active cells.

The target of a further data set is T1, CRBN/DDB1 complex (Homo sapiens, UniProt Q96SW2).
T1 construct: WT full length CRBN/DDB1 complex was added; made in house; host or cells: Sf9 insect cells (baculovirus)
The data set is described as follows: IMiD-based fluorescence polarisation assay. It counts as binding. The following applies: displacement of Sulfo-Cy5 IMiD probe (5 nM), 80 nM CRBN/DDB1; read-out: FP IC50. In general terms: Fluorescence polarisation rises when a labelled molecule tumbles more slowly, as on binding a larger partner.

The subject of a further data set is cMYC-EGFP-DCD23. The data set is described as follows: Degradation of cMYC-EGFP-DCD23 in HMEC (flow cytometry, western blotting). It counts as cell-based, human. The following applies: EGFP cellular degradation data for the DCD23, related to Figure 1 (10uM, 4h).
Source text: as §1, §2, §3
Cells were lysed with SDS lysis buffer (2% SDS, 10% Glycerol, 50mM Tris pH 6.8) and boiled at 95°C for 30min. Protein concentration was measured using Pierce BCA Protein Assay Kit (ThermoFischer) following manufacturer’s recommendations. Samples were ran in NuPAGETM 10% Bis-Tris Midi electrophoresis gels (Invitrogen) using NuPAGETM MES SDS running buffer (ThermoFischer Scientific).
For western blotting membranes were blocked in a solution of 5% (w/v) bovine serum albumin (BSA; Sigma-Aldrich) dissolved in TBS-0.1% Tween 20 (Sigma-Aldrich) then incubated at 4°C overnight with the primary antibodies diluted in 5% (w/v) BSA/TBS-T. The membranes where then washed and incubated with anti-mouse and/or anti-rabbit secondary antibodies (LI-COR Biosciences) for 2h at RT diluted in 5% (w/v) BSA/TBS-T then washed and imaged using the LI-COR Odyssey (LI-COR Biosciences). Images were analyzed using Image Studio Lite software (LI-COR Biosciences).

T1 sequence (Q96SW2 whole entry): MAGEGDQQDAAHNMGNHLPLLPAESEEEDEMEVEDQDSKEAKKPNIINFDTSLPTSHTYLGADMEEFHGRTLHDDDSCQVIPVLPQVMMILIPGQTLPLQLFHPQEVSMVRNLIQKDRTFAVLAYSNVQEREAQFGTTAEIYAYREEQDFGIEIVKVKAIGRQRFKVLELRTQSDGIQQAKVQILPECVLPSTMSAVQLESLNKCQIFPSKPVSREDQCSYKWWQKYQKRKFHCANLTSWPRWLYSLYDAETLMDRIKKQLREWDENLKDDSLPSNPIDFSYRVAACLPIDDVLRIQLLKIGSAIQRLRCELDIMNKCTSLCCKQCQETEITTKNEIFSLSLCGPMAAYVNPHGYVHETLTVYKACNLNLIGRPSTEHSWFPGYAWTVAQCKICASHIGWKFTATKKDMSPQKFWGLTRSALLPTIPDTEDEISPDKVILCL
T1 sequence (Q16531 whole entry partner): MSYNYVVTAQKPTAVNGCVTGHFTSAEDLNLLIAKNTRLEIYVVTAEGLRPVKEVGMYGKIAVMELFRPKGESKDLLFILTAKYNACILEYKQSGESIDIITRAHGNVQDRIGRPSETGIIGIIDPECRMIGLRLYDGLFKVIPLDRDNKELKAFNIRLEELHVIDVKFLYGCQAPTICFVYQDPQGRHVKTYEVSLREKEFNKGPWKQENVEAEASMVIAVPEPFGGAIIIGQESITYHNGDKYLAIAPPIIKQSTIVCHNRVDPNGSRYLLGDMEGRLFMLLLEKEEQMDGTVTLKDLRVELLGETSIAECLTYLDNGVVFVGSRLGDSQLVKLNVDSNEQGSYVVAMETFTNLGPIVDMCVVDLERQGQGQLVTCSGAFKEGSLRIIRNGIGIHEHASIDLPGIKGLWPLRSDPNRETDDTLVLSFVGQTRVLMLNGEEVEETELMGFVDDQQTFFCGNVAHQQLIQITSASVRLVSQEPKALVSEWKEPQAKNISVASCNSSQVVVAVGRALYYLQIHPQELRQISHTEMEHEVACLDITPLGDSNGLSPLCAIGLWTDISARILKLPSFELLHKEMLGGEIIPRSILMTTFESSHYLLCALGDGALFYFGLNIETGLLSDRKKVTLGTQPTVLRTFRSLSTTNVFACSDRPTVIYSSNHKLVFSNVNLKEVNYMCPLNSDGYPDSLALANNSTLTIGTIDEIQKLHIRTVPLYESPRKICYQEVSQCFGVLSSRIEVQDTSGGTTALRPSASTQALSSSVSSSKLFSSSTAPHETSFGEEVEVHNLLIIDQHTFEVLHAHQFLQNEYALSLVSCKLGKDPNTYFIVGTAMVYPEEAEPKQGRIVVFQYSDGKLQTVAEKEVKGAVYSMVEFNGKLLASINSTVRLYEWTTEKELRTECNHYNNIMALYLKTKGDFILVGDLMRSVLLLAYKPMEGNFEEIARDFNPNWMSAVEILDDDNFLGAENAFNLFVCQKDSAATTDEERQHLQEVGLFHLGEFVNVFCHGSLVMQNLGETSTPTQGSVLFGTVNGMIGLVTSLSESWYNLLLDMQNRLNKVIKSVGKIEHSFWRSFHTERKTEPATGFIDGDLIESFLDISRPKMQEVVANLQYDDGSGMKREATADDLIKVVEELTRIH
Method for CRBN/DDB1 complex: First, we wanted to confirm that the IMiD/CELMoDs used in our study were effectively binding to CRBN and to estimate their binding affinities. […] WT full length CRBN/DDB1 complex was added with a Tempest liquid handler (Formulatrix, USA) to all wells to a final concentration of 80 nM, except for low controls where WT CRBN was substituted with mutant [MUT]-[MUT] CRBN (mutant unable to bind the probe). The Echo was also used to add 5 nM final concentration of Sulfo-Cy5 fluorescent IMiD-based probe (Figure S6A) to each well. Plates were sealed, centrifuged at 200 g for 1 min and stored overnight at 4°C. Fluorescence Polarization and total fluorescence were read using a PHERAstar FSX plate reader (BMG Labtech, Germany).

Usually IC50 stands for the concentration that gives 50% inhibition. `Cc1ccc(NC(=O)NCc2ccc3c(c2)CN(C2CCC(=O)NC2=O)C3=O)cc1Cl` (centres unmarked) [CC885]: the “loss of cMYC-EGFP signal” value in the data set on cMYC-EGFP-DCD19 was “robust loss of cMYC-EGFP signal”. Besides, the “change of EGFP signal” value in the data set with cMYC-EGFP-DCD2 is reported as “strong decrease in EGFP signal”. Also, in data set [1], the cellular toxicity result is on record as “significant cellular toxicity”. For the same compound, the IC50 on CRBN/DDB1 complex came to 107 nM. In addition, the “Degradation as Log2 FC relative to DMSO” value in the data set with cMYC-EGFP-DCD23 is -1.27 Log2 FC.
